Test results from patent US8283346B2, “Human immunodeficiency virus protease inhibitors” (The Trustees of the Stevens Institute of Technology, priority 2009, dated 2012).
Several values for one entry are separate records, joined by “and”; a condition that tells them apart may be missing. Identical values can stand only once.

Target: T1, HIV-1 protease (Human immunodeficiency virus type 1 group M subtype B, UniProt P04585)
T1 construct: The HIV-1 protease is composed of 99 amino acids
Assay: In vitro HIV-1 protease assay
Format: biochemical
Details: for IC50: purified HIV-1 protease 15 picomolar, peptide substrate 440 micromolar, pH 5.5, 30° C., 60 minutes, HPLC fluorescence detection; for biological activity compared with another named compound, in words: comparator named in the value; for fold higher biological activity than the corresponding SRR (C4) diastereomer: SRS compound vs its SRR diastereomer (4 vs 3, 6 vs 5, 17 vs 16, 13 vs 12, 19 vs 18, 23 vs 22, 21 vs 20)
Procedure: Compounds were evaluated for the ability to inhibit the enzymatic activity of HIV-1 protease in an in vitro assay. Protease activity was assessed in reactions catalyzed by purified HIV-1 protease at a concentration of 15 picomolar in buffer (50 mM sodium acetate, pH 5.5, 100 mM NaCl, 1 mg/mL bovine serum albumin) using a peptide substrate with sequence Val-Ser-Gln-Asn-(beta-naphthylalanine)-Pro-IIe-Val at a concentration of 440 micromolar in a final volume of 80 microliters. Compounds in DMSO stock were added to a final DMSO concentration of 2.5% and preincubated with enzyme prior to the initiation of the reaction by addition of substrate. Reactions were incubated at 30° C. for 60 minutes and were then quenched by the addition of 120 microliters 10% H3PO4. The amount of product formed was determined using high performance liquid chromatography with a Vydac C18 column and fluorescence detection of product. Percent inhibition was determined relative to control reactions without inhibitor, and half maximal inhibitory concentration (IC50) values were determined using a standard four parameter fit to the inhibition data. The IC50 is a quantitative measure of the effectiveness of a compound in inhibiting biological or biochemical function that indicates how much a particular compound or other substance is needed to inhibit a given biological process (or component of a process) by half.

Structure (SMILES) | fold greater activity than compound 1 (R=H) (mixture of two C4 diastereomers vs compound 1) | IC50 | biological activity compared with another named compound, in words | fold higher biological activity than the corresponding SRR (C4) diastereomer | biological activity (HIV-1 protease inhibition) in words
CC1Cc2ccccc2S(=O)(=O)N(C[C@@H](O)[C@H](Cc2ccccc2)NC(=O)OC(C)(C)C)C1 (mixture of isomers) [Compound 2] | ten-fold greater activity | 240 nM and 220 nM |  |  | 
CC(C)(C)OC(=O)N[C@@H](Cc1ccccc1)[C@H](O)CN1CC(c2ccccc2)Cc2ccccc2S1(=O)=O (mixture of isomers) [Compound 7] |  | 455 nM | biological activity higher than that of Compound 1 |  | 
CC(C)(C)OC(=O)N[C@@H](Cc1ccccc1)[C@H](O)CN1CCCc2ccccc2S1(=O)=O [Compound 1] |  | 2800 nM and 3050 nM | much less active when compared to Compound 4 |  | 
C=CCOC(=O)N[C@@H](Cc1ccccc1)[C@H](O)CN1C[C@H](C)Cc2ccccc2S1(=O)=O [Compound 3] |  | 5960 nM |  |  | 
C=CCOC(=O)N[C@@H](Cc1ccccc1)[C@H](O)CN1C[C@@H](C)Cc2ccccc2S1(=O)=O [Compound 4] |  | 157 nM |  | approximately 40 fold | 
CCOC(=O)N[C@@H](Cc1ccccc1)[C@H](O)CN1C[C@H](C)Cc2ccccc2S1(=O)=O [Compound 5] |  | 10800 nM |  |  | 
CCOC(=O)N[C@@H](Cc1ccccc1)[C@H](O)CN1C[C@@H](C)Cc2ccccc2S1(=O)=O [Compound 6] |  | 199 nM |  | approximately 54 fold | 
C=CCOC(=O)N[C@@H](Cc1ccccc1)[C@H](O)CN1C[C@H](c2ccccc2)Cc2ccccc2S1(=O)=O [Compound 8] |  | 3260 nM | lower biological activity than that of Compound 9 |  | 
C=CCOC(=O)N[C@@H](Cc1ccccc1)[C@H](O)CN1C[C@@H](c2ccccc2)Cc2ccccc2S1(=O)=O [Compound 9] |  | 470 nM | higher biological activity than that of Compound 3 |  | 
CCOC(=O)N[C@@H](Cc1ccccc1)[C@H](O)CN1C[C@H](c2ccccc2)Cc2ccccc2S1(=O)=O [Compound 10] |  | 2440 nM |  |  | 
CCOC(=O)N[C@@H](Cc1ccccc1)[C@H](O)CN1C[C@@H](c2ccccc2)Cc2ccccc2S1(=O)=O [Compound 11] |  | 864 nM | higher biological activity than that of Compound 10 |  | 
C[C@@H]1Cc2cc(F)ccc2S(=O)(=O)N(C[C@@H](O)[C@H](Cc2ccccc2)NC(=O)OC(C)(C)C)C1 [Compound 12] |  | 15700 nM |  |  | 
C[C@H]1Cc2cc(F)ccc2S(=O)(=O)N(C[C@@H](O)[C@H](Cc2ccccc2)NC(=O)OC(C)(C)C)C1 [Compound 13] |  | 119 nM | higher biological activity than Compound 15 | ~132 fold | 
C[C@@H]1Cc2ccccc2S(=O)(=O)N(C[C@@H](O)[C@H](Cc2ccccc2)NC(=O)OC(C)(C)C)C1 [Compound 14] |  | 5470 nM |  |  | 
C[C@H]1Cc2ccccc2S(=O)(=O)N(C[C@@H](O)[C@H](Cc2ccccc2)NC(=O)OC(C)(C)C)C1 [Compound 15] |  | 169 nM | higher biological activity than that of Compound 14 |  | 
C[C@H]1Cc2ccccc2S(=O)(=O)N(C[C@@H](O)[C@H](Cc2ccccc2)NC(=O)Oc2ccccc2)C1 [Compound 17] |  | 2060 nM | higher activity than Compound 16 | approximately 10 fold | 
C[C@H]1Cc2cc(C(F)(F)F)ccc2S(=O)(=O)N(C[C@@H](O)[C@H](Cc2ccccc2)NC(=O)OC(C)(C)C)C1 [Compound 19] |  | 1120 nM |  | ~18 fold | not very active
C[C@@H]1Cc2ccc(C(F)(F)F)cc2S(=O)(=O)N(C[C@@H](O)[C@H](Cc2ccccc2)NC(=O)OC(C)(C)C)C1 [Compound 20] |  | 8300 nM |  |  | 
C[C@H]1Cc2ccc(C(F)(F)F)cc2S(=O)(=O)N(C[C@@H](O)[C@H](Cc2ccccc2)NC(=O)OC(C)(C)C)C1 [Compound 21] |  | 612 nM |  | ~14 fold | 
COc1ccc2c(c1)C[C@@H](C)CN(C[C@@H](O)[C@H](Cc1ccccc1)NC(=O)OC(C)(C)C)S2(=O)=O [Compound 22] |  | 6100 nM |  |  | not active
COc1ccc2c(c1)C[C@H](C)CN(C[C@@H](O)[C@H](Cc1ccccc1)NC(=O)OC(C)(C)C)S2(=O)=O [Compound 23] |  | 107 nM |  | ~57 fold | excellent activity
C[C@H]1Cc2cc(F)ccc2S(=O)(=O)N(C[C@@H](O)[C@H](Cc2ccccc2)NC(=O)C2CN(c3ccccc3)C(=O)O2)C1 (stereo partly drawn) [Compound 24] |  | 176 nM |  |  | highly active
